Literature values, collected in patent US6479458B1, “Targeting the reverse mode of the Na+/Ca2+ exchanger for the treatment of optic neuropathy associated with glaucoma and ischemic optic neuropathy” (Allergan, Inc., priority 2001, dated 2002).

Columns and labels:
Na+/Ca2+ exchanger = conditions: variety of cell types including neurons

| Compound | block of the reverse mode of the Na+/Ca2+ exchanger (Na+/Ca2+ exchanger) | inhibition of sodium-calcium exchange (sodium-calcium exchange) |
| --- | --- | --- |
| CS(=O)(=O)O.N=C(N)SCCc1ccc(OCc2ccc([N+](=O)[O-])cc2)cc1 [KB-R743] | preferentially block the reverse mode |  |
| cyclosporin A |  | specific activity in the inhibition of sodium-calcium exchange |
